# Data: publication PMC11968394, “The effect of deuterated PLK1 inhibitor on its safety and efficacy in vivo” (Frontiers in Oncology, 2025)
# Columns and labels:
# RON = RON (Homo sapiens, UniProt Q04912); test: Kinase assay RON; type: biochemical
# Description: (§1) Serial dilutions in DMSO were prepared. PLK1 was serially diluted 5-fold from 10 μM, yielding concentrations from 10000 nM to 0.00512 nM. Other targets were serially diluted 3-fold from 10 μM, yielding concentrations from 10000 nM to 0.5 nM. We have used two kinase assays: HTRF assay and ADG-Glo assay.
# (§2) For HTRF Assay, 2× ATP/substrate solution and 2× kinase solution were prepared in kinase reaction buffer. Using an Echo 655, 50 nL of each diluted compound was transferred to a 384-well detection plate. The plate was centrifuged at 1000 rpm for 1 minute. 2.5 μL of 2× kinase solution was added to each well. The plate was incubated at 25°C for 10 minutes. 2.5 μL of 2× ATP/substrate solution was added to each well. The plate was centrifuged at 1000 rpm for 1 minute. The plate was incubated at 25°C for 40 minutes. 2× XL665 and antibody detection reagent were prepared in detection buffer. 5 μL of the prepared kinase detection reagent was added to each well. The plate was centrifuged at 1000 rpm for 1 minute. The plate was incubated at 25°C for 1 hour. Fluorescence signals at 620 nm (Cryptate) and 665 nm (XL665) were measured using a multifunction plate reader.
# (§3) For ADP-Glo Assay, 2× ATP/substrate solution and 2× kinase solution were prepared in kinase reaction buffer. […] Luminescence signals were measured using a multifunction plate reader.
# CLK2 = CLK2 (Homo sapiens, UniProt P49760); test: Kinase assay CLK2; type: biochemical
# Sequence of CLK2 (P49760 whole entry, species assumed): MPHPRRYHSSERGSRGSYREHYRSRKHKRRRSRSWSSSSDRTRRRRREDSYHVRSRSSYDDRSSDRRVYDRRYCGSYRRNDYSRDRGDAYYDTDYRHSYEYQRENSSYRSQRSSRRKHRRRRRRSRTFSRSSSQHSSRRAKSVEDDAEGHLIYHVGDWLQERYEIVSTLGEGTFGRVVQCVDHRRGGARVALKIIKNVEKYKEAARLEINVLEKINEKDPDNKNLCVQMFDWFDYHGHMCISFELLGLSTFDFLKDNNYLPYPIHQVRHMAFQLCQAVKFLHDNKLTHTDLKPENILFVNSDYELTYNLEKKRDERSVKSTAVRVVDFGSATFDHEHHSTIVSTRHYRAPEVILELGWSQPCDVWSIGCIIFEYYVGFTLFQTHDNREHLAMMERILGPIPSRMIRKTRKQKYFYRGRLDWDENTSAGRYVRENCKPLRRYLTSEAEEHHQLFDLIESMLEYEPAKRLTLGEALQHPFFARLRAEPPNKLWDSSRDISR
# Description: as §1, §2, §3
# CK1ϵ = CK1ϵ (Homo sapiens, UniProt P49674); test: Kinase assay CK1ϵ; type: biochemical
# Sequence of CK1ϵ (P49674 whole entry): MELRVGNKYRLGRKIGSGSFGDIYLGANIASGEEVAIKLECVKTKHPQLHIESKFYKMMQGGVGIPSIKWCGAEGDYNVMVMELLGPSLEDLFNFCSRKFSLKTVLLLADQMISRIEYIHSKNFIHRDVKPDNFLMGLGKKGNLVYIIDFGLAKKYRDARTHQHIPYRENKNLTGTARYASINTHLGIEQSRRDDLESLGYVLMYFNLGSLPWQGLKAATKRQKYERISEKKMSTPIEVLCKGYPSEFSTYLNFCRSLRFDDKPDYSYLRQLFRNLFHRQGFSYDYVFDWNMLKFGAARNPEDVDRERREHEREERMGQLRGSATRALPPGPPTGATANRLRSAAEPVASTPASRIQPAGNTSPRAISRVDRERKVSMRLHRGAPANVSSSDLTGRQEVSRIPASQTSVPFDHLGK
# Description: as §1, §2, §3
# CK1α = CK1α (Homo sapiens, UniProt P48729); test: Kinase assay CK1α; type: biochemical
# Sequence of CK1α (P48729 whole entry): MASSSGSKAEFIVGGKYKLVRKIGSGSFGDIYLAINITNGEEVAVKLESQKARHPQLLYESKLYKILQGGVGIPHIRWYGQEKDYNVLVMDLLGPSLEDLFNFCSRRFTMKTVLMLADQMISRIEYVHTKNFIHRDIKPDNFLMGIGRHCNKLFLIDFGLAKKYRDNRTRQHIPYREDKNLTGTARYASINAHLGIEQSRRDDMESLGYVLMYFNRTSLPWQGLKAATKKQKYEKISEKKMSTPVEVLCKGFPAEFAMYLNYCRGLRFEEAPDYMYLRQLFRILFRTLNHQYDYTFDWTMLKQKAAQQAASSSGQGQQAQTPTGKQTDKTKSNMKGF
# Description: as §1, §2, §3
# Panc04.03 = test: Cell viability (CellTiter-Glo, 72 h), Panc04.03; type: cell-based, Human; settings: Panc04.03, 72 hours; for IC50: Homo sapiens, Panc 04.03; for Bottom: dose-response curve bottom; for Top: dose-response curve top
# Description: (§4) Human pancreatic cancer cell lines (PSN1, PANC-1, Panc 04.03, MIA PaCa-2, BxPC-3, and Capan-1) were cultured in their respective culture media. PSN1 cell lines were maintained in RPMI 1640 + 10%FBS. MIA PaCa-2 cells were cultured in DMEM+10%FBS+5% horse serum. Panc 04.03 cells were grown in RPMI 1640 + 15%FBS+10μg/mL Insulin. PANC-1 cells were maintained in DMEM+10%FBS. BxPC-3 cells were cultured in RPMI 1640 + 10%FBS. Capan-1 cells were grown in IMDM+20%FBS. All cells were incubated at 37°C in a humidified atmosphere containing 5% CO2.
# (§5) For assays, cells in the logarithmic growth phase were harvested, seeded to different concentrations at 2,000-6,000 cells/well in 96-well plates. Following overnight incubation, test compounds were added at various concentrations and incubated for 72 hours. Cell viability was assessed by the ATP concentration using the CellTiter-Glo reagent (Promega, Madison, WI 53711 USA), and luminescence values were recorded by a Multilabel Reader (PerkinElmer, Waltham, MA, USA).
# [1] = tested on: p-TCTP, a direct substrate of PLK1; test: Pharmacodynamics: phospho-Ser46 TCTP in PSN-1 xenograft tumors (Western blot); type: in vivo, M-NSG mice; settings: 2 hours after single oral dose (60, 30, 15 mg/kg)
# Description: (§6) For in vivo PK/PD studies, a PSN1 tumor model was established in female M-NSG (NOD.Cg-Prkdc^scidIl2rg^em1Smoc ) mice, which are severely immunodeficient mice lacking the interleukin 2 receptor gamma chain on a NOD.Cg-Prkdc^scid background, at Shanghai Model Organisms (Shanghai, China). Briefly, 5 × 10^6 PSN1 cells were inoculated subcutaneously into each M-NSG mouse. Once the tumors reached approximately 500 mm³, compounds were administered orally at various dosages. For PK studies, blood samples were collected at 0, 0.25, 0.5, 1, 2, 6, and 24 hours post-dose. The sera from blood were then obtained and stored at -70°C. For PD studies, tumors were harvested 2 hours after dosing and stored at -70°C.The serum and tumor samples were then transported to PRECEDO (Hefei, Anhui, China) for further PK/PD studies.
# For PD study, tumor tissues (~30 mg) were homogenized in 350 µL Lysis Buffer. After centrifugation, protein concentration in supernatants was determined by BCA assay. Samples were prepared for SDS-PAGE and run on 10% gels. Proteins were transferred to PVDF membranes, blocked, and incubated with anti-Phospho-TCTP (Ser46) Antibody (Cell Signaling Technology, Danvers, MA, USA) (1:1,000) overnight at 4°C. After washing, membranes were incubated with HRP-anti-Rabbit IgG (Cell Signaling Technology, Danvers, MA, USA) (1:3,000) for 1 hour, then treated with ECL reagents for imaging.
# CLK1 = CLK1 (Homo sapiens, UniProt P49759); test: Kinase assay CLK1; type: biochemical
# Sequence of CLK1 (P49759 whole entry): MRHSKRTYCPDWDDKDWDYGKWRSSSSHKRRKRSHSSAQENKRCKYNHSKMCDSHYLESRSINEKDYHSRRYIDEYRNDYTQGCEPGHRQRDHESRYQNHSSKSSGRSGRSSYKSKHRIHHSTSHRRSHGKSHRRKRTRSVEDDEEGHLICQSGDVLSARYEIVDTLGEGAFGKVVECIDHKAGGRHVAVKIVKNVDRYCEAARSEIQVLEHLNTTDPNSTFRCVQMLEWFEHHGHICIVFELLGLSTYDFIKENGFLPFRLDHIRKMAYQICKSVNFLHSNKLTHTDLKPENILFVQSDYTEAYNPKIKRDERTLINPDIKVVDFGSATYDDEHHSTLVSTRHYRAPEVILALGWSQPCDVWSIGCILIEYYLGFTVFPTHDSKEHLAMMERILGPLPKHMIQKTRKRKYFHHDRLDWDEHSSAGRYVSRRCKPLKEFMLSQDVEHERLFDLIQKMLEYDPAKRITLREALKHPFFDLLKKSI
# Description: as §1, §2, §3
# PANC-1 = test: Cell viability (CellTiter-Glo, 72 h), PANC-1; type: cell-based, Human; settings: PANC-1, 72 hours; for IC50: Homo sapiens; for Bottom: dose-response curve bottom; for Top: dose-response curve top
# Description: as §4, §5
# TSSK1 = TSSK1 (Homo sapiens, UniProt Q9BXA7); test: Kinase assay TSSK1; type: biochemical
# Sequence of TSSK1 (Q9BXA7 whole entry, species assumed): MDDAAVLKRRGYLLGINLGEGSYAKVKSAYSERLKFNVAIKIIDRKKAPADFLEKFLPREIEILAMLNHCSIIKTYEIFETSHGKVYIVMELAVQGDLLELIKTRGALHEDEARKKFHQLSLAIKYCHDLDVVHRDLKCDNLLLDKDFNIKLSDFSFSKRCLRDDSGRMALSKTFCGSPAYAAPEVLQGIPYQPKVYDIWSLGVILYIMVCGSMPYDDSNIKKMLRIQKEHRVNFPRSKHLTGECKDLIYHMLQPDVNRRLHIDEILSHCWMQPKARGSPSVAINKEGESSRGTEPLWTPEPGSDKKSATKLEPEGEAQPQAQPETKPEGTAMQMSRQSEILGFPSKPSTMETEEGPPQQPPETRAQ
# Description: as §1, §2, §3
# [2] = Pharmacokinetics in PSN1 tumor CDX model, M-NSG mice; type: in vivo; settings: female, mouse, serum; PSN1 tumor-bearing M-NSG mice, oral, 60 mg/kg; read-out: T1/2 in blood (converted)
# Description: as §6
# For PK studies, serum and tumor samples were processed with the internal standard solution. Serum samples were centrifuged and mixed directly, while tumor samples were homogenized first. Supernatants were prepared for LC-MS/MS analysis. Compound concentrations were determined using LC-MS/MS with tolbutamide as the internal standard, employing a reverse-phase column and ESI on a tandem quadrupole mass spectrometer.
# MIA PaCa-2 = test: Cell viability (CellTiter-Glo, 72 h), MIA PaCa-2; type: cell-based, Human; settings: MIA PaCa-2, 72 hours; for IC50: Homo sapiens; for Bottom: dose-response curve bottom; for Top: dose-response curve top
# Description: as §4, §5
# CK1δ = CK1δ (Homo sapiens, UniProt P48730); test: Kinase assay CK1δ; type: biochemical
# Sequence of CK1δ (P48730 whole entry): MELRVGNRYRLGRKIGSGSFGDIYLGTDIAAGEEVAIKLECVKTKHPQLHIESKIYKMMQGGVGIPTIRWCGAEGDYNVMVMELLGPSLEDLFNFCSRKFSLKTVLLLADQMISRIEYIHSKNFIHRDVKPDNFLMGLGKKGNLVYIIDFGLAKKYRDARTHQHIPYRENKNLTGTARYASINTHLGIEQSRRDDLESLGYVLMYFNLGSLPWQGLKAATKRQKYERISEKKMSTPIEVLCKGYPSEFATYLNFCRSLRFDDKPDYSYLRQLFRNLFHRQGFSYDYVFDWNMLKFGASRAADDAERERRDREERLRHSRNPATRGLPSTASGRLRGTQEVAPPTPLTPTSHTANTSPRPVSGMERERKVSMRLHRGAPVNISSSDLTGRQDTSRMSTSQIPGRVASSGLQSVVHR
# Description: as §1, §2, §3
# Sequence of RON (Q04912 25-1400, species assumed): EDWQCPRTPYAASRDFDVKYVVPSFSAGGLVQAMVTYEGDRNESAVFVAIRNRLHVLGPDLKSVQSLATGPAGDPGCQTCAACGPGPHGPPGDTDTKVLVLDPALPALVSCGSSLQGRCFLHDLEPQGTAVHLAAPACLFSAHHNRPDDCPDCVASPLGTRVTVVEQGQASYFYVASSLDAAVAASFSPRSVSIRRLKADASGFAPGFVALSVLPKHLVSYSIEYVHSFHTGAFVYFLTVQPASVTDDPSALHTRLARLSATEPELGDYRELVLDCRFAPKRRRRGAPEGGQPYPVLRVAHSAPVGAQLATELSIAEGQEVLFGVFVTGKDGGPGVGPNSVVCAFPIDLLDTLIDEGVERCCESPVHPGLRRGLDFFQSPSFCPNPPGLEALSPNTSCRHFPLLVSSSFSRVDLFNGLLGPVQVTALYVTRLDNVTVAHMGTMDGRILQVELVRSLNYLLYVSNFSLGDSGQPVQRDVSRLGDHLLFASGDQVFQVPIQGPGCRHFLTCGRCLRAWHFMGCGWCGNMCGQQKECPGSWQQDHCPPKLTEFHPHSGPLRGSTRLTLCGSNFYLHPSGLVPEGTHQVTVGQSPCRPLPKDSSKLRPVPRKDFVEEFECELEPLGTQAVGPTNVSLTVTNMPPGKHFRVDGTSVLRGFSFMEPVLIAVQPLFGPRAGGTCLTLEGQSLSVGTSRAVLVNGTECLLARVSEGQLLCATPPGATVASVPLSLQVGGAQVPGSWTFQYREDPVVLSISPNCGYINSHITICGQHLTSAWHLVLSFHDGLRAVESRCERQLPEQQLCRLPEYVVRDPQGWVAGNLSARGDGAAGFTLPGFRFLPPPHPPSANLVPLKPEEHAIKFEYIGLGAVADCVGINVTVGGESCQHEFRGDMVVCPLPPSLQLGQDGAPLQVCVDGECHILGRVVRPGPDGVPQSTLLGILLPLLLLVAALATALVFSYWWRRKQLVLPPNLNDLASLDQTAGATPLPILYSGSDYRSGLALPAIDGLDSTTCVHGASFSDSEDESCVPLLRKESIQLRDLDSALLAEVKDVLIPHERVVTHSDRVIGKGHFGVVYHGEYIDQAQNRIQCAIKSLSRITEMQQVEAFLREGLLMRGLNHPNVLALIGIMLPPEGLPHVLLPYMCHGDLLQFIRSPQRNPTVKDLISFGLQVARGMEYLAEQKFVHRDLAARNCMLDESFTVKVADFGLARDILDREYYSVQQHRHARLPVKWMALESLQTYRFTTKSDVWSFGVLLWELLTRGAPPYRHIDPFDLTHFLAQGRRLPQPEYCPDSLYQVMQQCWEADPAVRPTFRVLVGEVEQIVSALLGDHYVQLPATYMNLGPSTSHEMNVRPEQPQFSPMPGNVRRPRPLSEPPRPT
Compound,IC50 (RON),IC50 (CLK2),IC50 (CK1ϵ),IC50 (CK1α),IC50 (Panc04.03),Bottom (Panc04.03),Top (Panc04.03),p-TCTP signal in tumors [1],IC50 (CLK1),IC50 (PANC-1),Bottom (PANC-1),Top (PANC-1),IC50 (TSSK1),half-life [2],IC50 (MIA PaCa-2),Bottom (MIA PaCa-2),Top (MIA PaCa-2),IC50 (CK1δ)
CN1CCN(c2ccc(OC(F)(F)F)c(Nc3ncc4c(n3)-c3c(c(C(N)=O)nn3CCO)CC4)c2)CC1 [NMS-P937],1090 nM,37 nM,156 nM,184 nM,73 nM,-4,29.5,reduced p-TCTP signal,235 nM,142 nM,-2.5,41.1,77.8 nM,2.4 h,196 nM,-4.1,78.7,59.3 nM
[2H]C1([2H])N(C)C([2H])([2H])C([2H])([2H])N(c2ccc(OC(F)(F)F)c(Nc3ncc4c(n3)-c3c(c(C(N)=O)nn3CCO)CC4)c2)C1([2H])[2H] [PR00012],905 nM,24.8 nM,156 nM,182 nM,83.8 nM,10.8,42.5,reduced p-TCTP signal,196 nM,237 nM,9.8,53.1,53.2 nM,5.5 h,262 nM,8.4,86.8,51.8 nM
